Assay [1] concerns differentiated 3T3-L1 mouse adipocyte cells. Nature of the assay: Adipocyte glucose consumption in differentiated 3T3-L1 cells (colorimetric glucose assay of the medium). The note with it: 3T3-L1, 24 h, compound 10 μM, loss of glucose from culture medium, mean fold change (compound/DMSO). The format is cell-based. Summed up: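 Differentiated 3T3-L1 mouse adipocytes (rosiglitazone/dexamethasone/IBMX/insulin induction, day 11) treated 24 h with compounds at 10 μM, 0.1% DMSO final. Medium glucose measured colorimetrically; consumption taken as glucose loss from medium versus cell-free control, expressed as mean fold change compound/DMSO ±SD.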

Assay [2] deals with T1, His6 tagged human recombinant FABP4 (Homo sapiens, UniProt P15090).
T1 construct: purchased Cayman Chemicals 10009549
T1 sequence (P15090 whole entry): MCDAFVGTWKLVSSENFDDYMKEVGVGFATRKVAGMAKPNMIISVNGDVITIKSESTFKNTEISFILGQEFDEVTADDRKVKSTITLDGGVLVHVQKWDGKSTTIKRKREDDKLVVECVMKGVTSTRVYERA
Nature of the assay: FABP4 TR-FRET assay: displacement of fluorescent fatty acid BODIPY FL C12. Conditions: inhibition of BODIPY FL C12 binding to His6-FABP4; 1.2 μL of 1.085 mM compound in DMSO per well; triplicates, mean percent inhibition. Summed up: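 TR-FRET displacement of BODIPY FL C12 from His6-FABP4 bound by Tb-anti-His6 antibody, in Tris pH 7.4 buffer with γ-globulins, NP-40 and DTT; compound stock 1.085 mM in DMSO. Read after 10 min at room temperature as 520/615 nm ratio; mean % inhibition versus DMSO from triplicates.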
Background: In TR-FRET formats the signal depends on donor and acceptor labels being close together.

A word on the fold induction: it is the ratio of treated to control signal. Low readings indicate little rise in signal, high ones a large rise in signal. For orientation: inhibition means the change of the read-out against control, counted positive when it falls. Turning to `CCCc1ccc2nc(N(C)CC(=O)O)cc(-c3cccc(C#N)c3)c2c1` [2-([4-(3-cyanophenyl)-6-propylquinolin-2-yl](methyl)amino}acetic acid], the fold induction at 10 µM in assay [1] came to 1.31. Besides, in assay [2], the inhibition at 1085 µM (stock) was 27.7%.
On the same counts, the results for `CN(CC(=O)O)c1cc(-c2ccccc2)c2cc(CCc3ccc4c(c3)CCCN4)ccc2n1` [2-[methyl({4-phenyl-6-[2-(1,2,3,4-tetrahydroquinolin-6-yl)ethyl]quinolin-2-yl})amino]acetic acid] are 1.31 and 44.7%.
`CCCCc1ccc2nc(N3CCCC3C(=O)O)cc(-c3ccccc3)c2c1` (centres unmarked) [1-(6-butyl-4-phenylquinolin-2-yl)pyrrolidine-2-carboxylic acid] came in with a fold induction at 10 µM in assay [1] of 1.12. Besides, in assay [2], the inhibition at 1085 µM (stock) was determined as 92.5%.
For `CCCCCCc1ccc2nc(N(C)CC(=O)O)ccc2c1` [2-[(6-hexylquinolin-2-yl)(methyl)amino]acetic acid], in that order: 1.15 and 53.3%.
For `CCCCCCCCc1ccc2nc(N(C)CC(=O)O)cc(Oc3cccc(F)c3)c2c1` [2-{[4-(3-fluorophenoxy)-6-octylquinolin-2-yl](methyl)amino}acetic acid], in that order: 1.32 and 74.6%.
On the same counts, the results for `CCCCCCCc1ccc2nc(N(C)CC(=O)O)cc(-c3ccc(F)cc3)c2c1` [2-([4-(4-fluorophenyl)-6-heptylquinolin-2-yl](methyl)amino}acetic acid] are 1.25 and 75.6%.
For `CN(CC(=O)NCC(=O)O)c1cc(-c2ccccc2)c2cc(Cl)ccc2n1` [2-{2-[(6-chloro-4-phenylquinolin-2-yl)(methyl)amino]acetamido}acetic acid], the fold induction at 10 µM in assay [1] was 1.08. In addition, in assay [2], the inhibition at 1085 µM (stock) amounted to 103%.
On the same counts, the results for `CCCCc1ccc2nc(N(C)CC(=O)O)cc(-c3cccnc3)c2c1` [2-{[6-butyl-4-(pyridin-3-yl)quinolin-2-yl](methyl)amino}acetic acid] are 1.19 and 39.2%.
On the same counts, the results for `CCCCc1ccc2nc(OCC(=O)O)cc(-c3cccc(C#N)c3)c2c1` [2-{[6-butyl-4-(3-cyanophenyl)quinolin-2-yl]oxy}acetic acid] are 1.12 and 36.2%.
For `O=C1NC(=O)C(Cc2cc(-c3ccccc3)c3cc(CCc4ccccc4)ccc3n2)S1` (centres unmarked) [5-{[4-phenyl-6-(2-phenylethyl)quinolin-2-yl]methyl}-1,3-thiazolidine-2,4-dione], in assay [1], the fold induction at 10 µM was determined as 1.45. Besides, the inhibition at 1085 µM (stock) in assay [2] came to 73.5%.
In turn, `CN(CC(=O)O)c1cc(-c2ccccc2)c2cc(CCC3CNc4ccccc4N3)ccc2n1` (centres unmarked) [2-[methyl({4-phenyl-6-[2-(1,2,3,4-tetrahydroquinoxalin-2-yl)ethyl]quinolin-2-yl})amino]acetic acid] yielded a fold induction at 10 µM in assay [1] of 1.26. Besides, the inhibition at 1085 µM (stock) in assay [2] is 14.9%.
`CN(CC(=O)O)c1cc(-c2ccccc2)c2cc(CCc3cncnc3)ccc2n1` [2-[methyl({4-phenyl-6-[2-(pyrimidin-5-yl)ethyl]quinolin-2-yl})amino]acetic acid] showed a fold induction at 10 µM in assay [1] of 1.22. Further, in assay [2], the inhibition at 1085 µM (stock) came out at 13.2%.
`CCCCCCc1ccc2nc(N(C)CC(=O)O)cc(Oc3cccnc3)c2c1` [2-{[6-hexyl-4-(pyridin-3-yloxy)quinolin-2-yl](methyl)amino}acetic acid]: in assay [1], the fold induction at 10 µM is 1.33. Further, the inhibition at 1085 µM (stock) in assay [2] was 85%.
With `CCCCCc1ccc2nc(N(C)CC(=O)O)cc(-c3cccc(C#N)c3)c2c1` [2-{[4-(3-cyanophenyl)-6-pentylquinolin-2-yl](methyl)amino}acetic acid], the fold induction at 10 µM in assay [1] is 1.23. In addition, the inhibition at 1085 µM (stock) in assay [2] stood at 65.1%.
On to `CCCCc1ccc2nc(N(C)CC(=O)O)cc(-c3ccccc3O)c2c1` [2-{[6-butyl-4-(2-hydroxyphenyl)quinolin-2-yl](methyl)amino}acetic acid], for which the fold induction at 10 µM in assay [1] was determined as 1.19. In addition, the inhibition at 1085 µM (stock) in assay [2] was 93.2%.
On the same counts, the results for `CCCc1ccc2nc(N(C)CC(=O)O)cc(-c3ccccc3)c2c1` [2-[methyl(4-phenyl-6-propylquinolin-2-yl)amino]acetic acid] are 1.36 and 104%.
For `CCCCc1ccc2nc(N(C)CC(=O)O)cc(-c3cccc(F)c3)c2c1` [2-{[6-butyl-4-(3-fluorophenyl)quinolin-2-yl](methyl)amino}acetic acid], in that order: 1.43 and 58.9%.
For `CCCCCOc1ccc2nc(N(C)CC(=O)O)cc(-c3ccccc3)c2c1` [2-{methyl [6-(pentyloxy)-4-phenylquinolin-2-yl]amino}acetic acid], in that order: 1.27 and 102%.
With `CCCCc1ccc2nc(N(C)CC(=O)O)cc(-c3ccc(F)cc3)c2c1` [2-{[6-butyl-4-(4-fluorophenyl)quinolin-2-yl](methyl)amino}acetic acid], in assay [1], the fold induction at 10 µM was determined as 1.49. For the same molecule, the inhibition at 1085 µM (stock) in assay [2] came out at 58.6%.
For `CCCCCCc1ccc2nc(N(CCC)CC(=O)O)cc(-c3ccc(F)cc3)c2c1` [2-{[4-(4-fluorophenyl)-6-hexylquinolin-2-yl](propyl)amino}acetic acid], in that order: 1.13 and 57.1%.
As to `CCCCCCc1ccc2nc(N(C)CC(C)C(=O)O)cc(-c3ccc(F)cc3)c2c1` (centres unmarked) [3-{[4-(4-fluorophenyl)-6-hexylquinolin-2-yl](methyl)amino}-2-methylpropanoic acid], the fold induction at 10 µM in assay [1] is 1.31. For the same molecule, the inhibition at 1085 µM (stock) in assay [2] worked out at 92.3%.
In assay [1], `O=C(O)COc1cc(-c2ccccc2)c2cc(Br)ccc2n1` [2-[(6-bromo-4-phenylquinolin-2-yl)oxy]acetic acid] displayed a fold induction at 10 µM of 1.01. Moreover, in assay [2], the inhibition at 1085 µM (stock) worked out at 35%.
For `CCCCCCc1ccc2nc(N3CCCC(C(=O)O)C3)cc(-c3cccnc3)c2c1` (centres unmarked) [1-[6-hexyl-4-(pyridin-3-yl)quinolin-2-yl]piperidine-3-carboxylic acid], in that order: 1.09 and 91.6%.
For `CN(CC(=O)O)c1cc(-c2ccc(F)cc2)c2cc(-c3ccc(F)cc3)ccc2n1` [2-{[4,6-bis(4-fluorophenyl)quinolin-2-yl](methyl)amino}acetic acid], in that order: 1.28 and 42%.
`CCc1ccc2nc(N(C)CC(=O)O)cc(-c3cccc(C#N)c3)c2c1` [2-{[4-(3-cyanophenyl)-6-ethylquinolin-2-yl](methyl)amino}acetic acid] registered a fold induction at 10 µM in assay [1] of 1.16. Also, the inhibition at 1085 µM (stock) in assay [2] worked out at 50.8%.
For `CCCCCCc1ccc2nc(OCC(=O)O)cc(-c3cccc(C#N)c3)c2c1` [2-{[4-(3-cyanophenyl)-6-hexylquinolin-2-yl]oxy}acetic acid], in that order: 1.02 and 39.4%.
`CCCCc1ccc2nc(N(C)CC(C)C(=O)O)cc(-c3cccnc3)c2c1` (centres unmarked) [3-{[6-butyl-4-(pyridin-3-yl)quinolin-2-yl](methyl)amino}-2-methylpropanoic acid] came in with a fold induction at 10 µM in assay [1] of 1.13. Moreover, the inhibition at 1085 µM (stock) in assay [2] was 46.4%.
For `CN(CC(=O)O)c1cc(-c2ccccc2)c2cc(OCc3ccccc3)ccc2n1` [2-{[6-(benzyloxy)-4-phenylquinolin-2-yl](methyl)amino}acetic acid], in that order: 1.27 and 84.2%.
`CN(CC(=O)O)c1cc(-c2ccccc2)c2cc(CCc3ncccn3)ccc2n1` [2-[methyl({4-phenyl-6-[2-(pyrimidin-2-yl)ethyl]quinolin-2-yl})amino]acetic acid] displayed a fold induction at 10 µM in assay [1] of 1.35. Further, the inhibition at 1085 µM (stock) in assay [2] was below 0%.
On the same counts, the results for `CCCCCCc1ccc2nc(N(CC(=O)O)CC(C)C)cc(-c3ccc(F)cc3)c2c1` [2-{[4-(4-fluorophenyl)-6-hexylquinolin-2-yl](2-methylpropyl)amino}acetic acid] are 1.18 and 78.7%.
For `CCCCCCc1ccc2nc(N(c3nnn[nH]3)C3CC3)cc(-c3ccccc3)c2c1` [N-cyclopropyl-6-hexyl-4-phenyl-N-(1H-1,2,3,4-tetrazol-5-yl)quinolin-2-amine], in that order: 1.18 and 84%.
`CCCCCCc1ccc2nc(N3CCCC3C(=O)O)cc(-c3ccccc3)c2c1` (centres unmarked) [1-(6-hexyl-4-phenylquinolin-2-yl)pyrrolidine-2-carboxylic acid]: in assay [1], the fold induction at 10 µM came to 1.09. Moreover, the inhibition at 1085 µM (stock) in assay [2] stood at 67.5%.
`CCCCCc1ccc2nc(N(C)CC(=O)O)cc(-c3cccc(C(N)=O)c3)c2c1` [2-{[4-(3-carbamoylphenyl)-6-pentylquinolin-2-yl](methyl)amino}acetic acid] displayed a fold induction at 10 µM in assay [1] of 1.04. For the same molecule, in assay [2], the inhibition at 1085 µM (stock) was 60.4%.
`CCCCCCc1ccc2nc(N(C)CC(=O)O)cc(N3CCC(F)(F)CC3)c2c1` [2-{[4-(4,4-difluoropiperidin-1-yl)-6-hexylquinolin-2-yl](methyl)amino}acetic acid] yielded a fold induction at 10 µM in assay [1] of 1.23. The inhibition at 1085 µM (stock) in assay [2] was found to be 53.7%.
